Experimental data published in patent US20120034288A1, “COMPOSITIONS AND METHODS FOR ENHANCED ATTRACTION OF NOCTUID MOTHS” (priority 2010, published 2012).

Columns and labels:
Heliothis zea [1] = assay: Heliothis zea Test 1: field trap capture, Hercon pheromone lure with/without enhancer; assay type: in vivo; details: for percent increase in Heliothis zea captures: test 1, enhancer added to pheromone lure
Experimental: 12 traps were set in Yazoo City and 10 in Monroe County, Miss. From mid June through mid September trans-2, cis-6-nonadienal, a compound reported from the volatiles of corn and soybean plants was tested. Both treatments used a commercial Heliothis zea pheromone dispenser produced by Hercon. The standard was this lure only, while the enhanced traps also contained a dispenser produced in-house that contained the enhancer.

Heliothis zea [2] = assay: Heliothis zea Test 2: field trap capture with added enhancer; assay type: in vivo; details: Arkansas, enhancer added to pheromone lure
Source text: The percent increase in Heliothis zea captures with the addition of the soybean volatile trans-2,cis-6-nonadienal was 44%, 25%, and 54% respectively for Mississippi and Arkansas in test 1 and in Arkansas in test 2.

`CC/C=C\CC/C=C/C=O` [trans-2,cis-6-nonadienal, trans-2, cis-6-nonadienal] was tested. Which “percent increase in Heliothis zea captures” value (shortened to “percent increase”) (Heliothis zea [1]; Arkansas) did it give?
Its value is 25%.

And the “percent increase” value (Heliothis zea [1]; Mississippi)?
Its value is 44%.

What about the “function as an enhancer for attracting H. zea” value (Heliothis zea [1]; statement in words) of the same compound?
Its value is “functioned as an enhancer”.

What about the “percent increase” value (Heliothis zea [2]) of the same compound?
Its value is 54%.
